Measurements: US12157730B2, “Heteroaryl derivative, method for producing same, and pharmaceutical composition comprising same as effective component” (VORONOI INC., priority 2019, dated 2024)

Columns and labels:
Type in all cases: cell-based
[1] = target: T1, Ba/F3 cell EGFR Exon20 ins NPH (Homo sapiens, UniProt P00533, INS773NPH); assay: Ba/F3 cell proliferation suppression, EGFR Exon20 ins NPH; conditions: for GI50: 72 hours after treatment, CellTiter-Glo; for Ba/F3 (NPH) Activity: GI50 class, Ba/F3 cell line with NPH inserted at Exon20 of EGFR, 72 hours
T1 construct: expressed in transfected cells; host or cells: Ba/F3
Summary of the method: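 Cells (3000–5000/well) plated 24 h before compound, 12-point 3-fold dilutions at 0.3 nM to 50 um final; Ba/F3 lines grown with 5 ng/ml IL-3. Viability by CellTiter-Glo luminescence after 72 h, growth ratio vs control, GI50 from curves; triplicate.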

[2] = target: T2, Ba/F3 cell EGFR L858R/T790M (Homo sapiens, UniProt P00533, L858R/T790M); assay: Ba/F3 cell proliferation suppression, EGFR L858R/T790M; conditions: 72 hours after treatment, CellTiter-Glo
T2 construct: expressed in transfected cells; host or cells: Ba/F3
Experimental: (§1) The following experiment was carried out to evaluate the suppression activity of the compounds according to the present invention against proliferation of Ba/F3 and lung cancer cells which express EGFR mutations.
(§2) Of the cancer cell lines expressing the EGFR gene, A549 was cultured after adding 10% FBS (HyClone) to DMEM (Invitrogen), and RPMI-1640 (Invitrogen) with 10% FBS was used for the other cancer cells. For the Ba/F3 cells, RPMI-1640 with 10% FBS and 5 ng/ml IL-3 (R&D Systems) was used. The transduced Ba/F3 cells were cultured by adding 1 ug/ml puromycin (Invitrogen) to the same medium.
(§3) 24 hours before treatment with the compounds, 3000 to 5000 cells were distributed into each well of a white clear bottom 96 well plate (Corning). The compounds were diluted in dimethylsulfoxide (dilution ratio 3:1; 12 concentrations total) and injected 0.5 ul each for a final concentration of 0.3 nM to 50 um. As for measurement of live cells, 72 hours after treatment with the compounds, a CellTiter-Glo luminescent cell-viability reagent (Promega) was used to store the cells at room temperature for 10 minutes, followed by measurement of luminescence using a reader (SynergyNeo, Biotek). Each test was repeated three times.
(§4) The result was calculated as a cell growth ratio (%) compared to a control. The program GraphPad Prism version 5.0 was used to draw the graphs and calculate the GI50 values.

[3] = target: T3, Ba/F3 cell EGFR Exon20 ins ASV (Homo sapiens, UniProt P00533, INS769ASV); assay: Ba/F3 cell proliferation suppression, EGFR Exon20 ins ASV; conditions: 72 hours after treatment, CellTiter-Glo
T3 construct: expressed in transfected cells; host or cells: Ba/F3
Experimental: as §1, §2, §3, §4

Ba/F3 cell naive = assay: Ba/F3 cell proliferation suppression, naive; conditions: Mus musculus, BaF3; 72 hours after treatment, CellTiter-Glo
Experimental: as §1, §2, §3, §4

[4] = tested on: Ba/F3 cell EGFR Del19/T790M; assay: Ba/F3 cell proliferation suppression, EGFR Del19/T790M; conditions: 72 hours after treatment, CellTiter-Glo
Experimental: as §1, §2, §3, §4

Ba/F3 cell EGFR L858R = target: T4, Ba/F3 cell EGFR L858R (Homo sapiens, UniProt P00533, L858R); assay: Ba/F3 cell proliferation suppression, EGFR L858R; conditions: 72 hours after treatment, CellTiter-Glo
T4 construct: expressed in transfected cells; host or cells: Ba/F3
Experimental: as §1, §2, §3, §4

Structure (SMILES)	GI50 [1] [µM]	Ba/F3 (NPH) Activity [1]	GI50 [2] [µM]	GI50 [3] [µM]	GI50 (Ba/F3 cell naive) [µM]	GI50 [4] [µM]	GI50 (Ba/F3 cell EGFR L858R) [µM]
C=CC(=O)Nc1cc(Nc2cc(N3OCC[C@@H]3c3cc(F)cc(F)c3)ncn2)c(OC)cc1N1CCN(CC)CC1 [Example 240, N-(5-((6-((R)-3-(3,5-difluorophenyl)isoxazolidine-2-yl)pyrimidine-4-yl)amino)-2-(4-ethylpiperazine-1-yl)-4-methoxyphenyl) acrylamide]	< 0.05	A (GI50 < 50 nM)	< 0.05	< 0.05	≥ 5		
C=CC(=O)Nc1cc(Nc2cc(N3OCC[C@@H]3c3ccccc3)ncn2)c(OC)cc1N1CCOCC1 [Example 5, N-(4-methoxy-2-morpholino-5-((6-((R)-3-phenylisoxazolidine-2-yl)pyrimidine-4-yl)amino)phenyl) acrylamide]			0.05 to 0.5		≥ 5	0.05 to 0.5	< 0.05
C=CC(=O)Nc1cc(Nc2cc(N3OCC[C@H]3c3ccccc3)ncn2)c(OC)cc1N(C)CCN(C)C [Example 1, N-(2((2-(dimethylamino)ethyl) (methyl)amino)-4-methoxy-5-((6-((S)-3-phenylisoxazolidine-2-yl)pyrimidine-4-yl)amino)phenyl) acrylamide]			0.05 to 0.5		≥ 5	0.05 to 0.5	< 0.05
C=CC(=O)Nc1cc(Nc2cc(N3OCC[C@@H]3c3cc(F)cc(F)c3)ncn2)c(OC)cc1N1CCC(N2CC3CC(C2)N3CC)CC1 [Example 252, N-(5-((6-((R)-3-(3,5-difluorophenyl)isoxazolidine-2-yl)pyrimidine-4-yl)amino)-2-(4-(6-ethyl-3,6-diazabicyclo[3.1.1]heptane-3-yl)piperidine-1-yl)-4-methoxyphenyl) acrylamide]	< 0.05	A (GI50 < 50 nM)	< 0.05		0.5 to 5		
C=CC(=O)Nc1cc(Nc2cc(N3OCC[C@@H]3c3cc(F)cc(F)c3)ncn2)c(OC)cc1N1CCC(N2CCN(C(C)=O)CC2)CC1 [Example 251, N-(2-(4-(4-acetylpiperazine-1-yl)piperidine-1-yl)-5-((6-((R)-3-(3,5-difluorophenyl)isoxazolidine-2-yl)pyrimidine-4-yl)amino)-4-methoxyphenyl) acrylamide]	< 0.05	A (GI50 < 50 nM)	< 0.05		≥ 5		
C=CC(=O)Nc1cc(Nc2cc(N3OCC[C@@H]3c3cc(F)cc(F)c3)ncn2)c(OC)cc1N1CCC(N2CCC(N(C)C)CC2)CC1 [Example 253]	< 0.05	A (GI50 < 50 nM)	< 0.05		0.5 to 5		
C=CC(=O)Nc1cc(Nc2cc(N3OCC[C@@H]3c3cc(F)cc(F)c3)ncn2)c(OC)cc1N1CCC(N2C3CC2CN(CC)C3)CC1 [Example 249, N-(5-((6-((R)-3-(3,5-difluorophenyl)isoxazolidine-2-yl)pyrimidine-4-yl)amino)-2-(4-(3-ethyl-3,6-diazabicyclo[3.1.1]heptane-6-yl)piperidine-1-yl)-4-methoxyphenyl) acrylamide]	< 0.05	A (GI50 < 50 nM)	< 0.05		≥ 5		
C=CC(=O)Nc1cc(Nc2cc(N3OCC[C@@H]3c3ccccc3)ncn2)c(OC)cc1OCCN(C)C [Example 8, N-(2-(2-(dimethylamino)ethxy)-4-methoxy-5-((6-(R)-3-phenylisoxazolidine-2-yl)pyrimidine-4-yl-amino)phenyl) acrylamide]			0.05 to 0.5		0.5 to 5	0.05 to 0.5	
C=CC(=O)Nc1cc(Nc2cc(N3OCC[C@@H]3c3ccc(C)nc3)ncn2)c(OC)cc1N1CCC(N2CCN(C(C)C)CC2)CC1 [Example 230, N-(2-(4-(4-isopropylpiperazine-1-yl)piperidine-1-yl)-4-methoxy-5-((6-((R)-3-(6-methylpyridine-3-yl)isoxazolidine-2-yl)pyrimidine-4-yl)amino)phenyl)acrylamide]		B (50 nM ≤ GI50 < 500 nM)					
C=CC(=O)Nc1cc(Nc2cc(N3OCC[C@@H]3c3ccc(Cl)c(Cl)c3)ncn2)c(OC)cc1N1CCN(C2CC2)CC1 [compound 673, N-(2-(4-cyclopropylpiperazine-1-yl)-5-((6-((R)-3-(3,4-dichlorophenyl)isoxazolidine-2-yl)pyrimidine-4-yl)amino)-4-methoxyphenyl) acrylamide]		A (GI50 < 50 nM)					
C=CC(=O)Nc1cc(Nc2cc(N3OCC[C@@H]3c3ccc(C)nc3)ncn2)c(OC)cc1N1CCC(N2CCN(C)CC2)CC1 [Example 47, N-(4-methoxy-2-(4-(4-methylpiperazine-1-yl)piperidine-1-yl)-5-((6((R)-3-(6-methylpyridine-3-yl)isoxazolidine-2-yl)pyrimidine-4-yl)amino)phenyl) acrylamide]		B (50 nM ≤ GI50 < 500 nM)					

The remaining lines, values ahead:

GI50 [1] [µM]	Ba/F3 (NPH) Activity [1]	GI50 [2] [µM]	GI50 [3] [µM]	GI50 (Ba/F3 cell naive) [µM]	GI50 [4] [µM]	GI50 (Ba/F3 cell EGFR L858R) [µM]	Structure (SMILES)
		0.5 to 5		≥ 5	0.5 to 5	0.05 to 0.5	C=CC(=O)Nc1cc(Nc2cc(N3OCC[C@H]3c3ccccc3)ncn2)c(OC)cc1N1CCOCC1 [Example 2, N-(4-methoxy-2-morpholino-5-((6-((S)-3-phenylisoxazolidine-2-yl)pyrimidine-4-yl)amino)phenyl) acrylamide]
< 0.05	A (GI50 < 50 nM)	< 0.05		≥ 5			C=CC(=O)Nc1cc(Nc2cc(N3OCC[C@@H]3c3cc(F)cc(F)c3)ncn2)c(OC)cc1N1CCC(N2CC[C@H](N(C)C)C2)CC1 [Example 250, N-(5-((6-((R)-3-(3,5-difluorophenyl)isoxazolidine-2-yl)pyrimidine-4-yl)amino)-2-(4-((S)-3-(dimethylamino)pyrolidine-1-yl)piperidine-1-yl)-4-methoxyphenyl) acrylamide]
< 0.05	A (GI50 < 50 nM)	< 0.05	< 0.05	≥ 5			C=CC(=O)Nc1cc(Nc2cc(N3OCC[C@@H]3c3cc(F)cc(F)c3)ncn2)c(OC)cc1N1CCC(N2CC[C@@H](N(C)C)C2)CC1 [Example 237, N-(5-((6-((R)-3-(3,5-difluorophenyl)isoxazolidine-2-yl)pyrimidine-4-yl)amino)-2-(4-((R)-3-(dimethylamino)pyrolidine-1-yl)piperidine-1-yl)-4-methoxyphenyl) acrylamide]
		0.05 to 0.5		≥ 5	< 0.05		C=CC(=O)Nc1cc(Nc2cc(N3OCC[C@@H]3c3ccccc3)ncn2)c(OC)cc1N1CCN(C2CC2)CC1 [Example 7, N-(2-(4-cyclopropylpiperazine-1-yl)-4-methoxy-5-((6-((R)-3-phenylisoxazolidine-2-yl)pyrimidine-4-yl)amino)phenyl) acrylamide]
	A (GI50 < 50 nM)						C=CC(=O)Nc1cc(Nc2cc(N3OCC[C@@H]3c3cccc4ccccc34)ncn2)c(OC)cc1N1CCC(N2CCO[C@H](C)C2)CC1 [compound 536, N-(4-methoxy-2-(4-((R)-2-methylmorpholino)piperidine-1-yl)-5-((6-((R)-3-(naphthalene-1-yl)isoxazolidine-2-yl)pyrimidine-4-yl)amino)phenyl) acrylamide]
	A (GI50 < 50 nM)						C=CC(=O)Nc1cc(Nc2cc(N3OCC[C@@H]3c3ccc(F)c(Cl)c3)ncn2)c(OC)cc1N1CCC(N2CCN(C)[C@H](C)C2)CC1 [compound 901, N-(5-((6-((R)-3-(3-chloro-4-fluorophenyl)isoxazolidine-2-yl)pyrimidine-4-yl)amino)-2-(4-((R)-3,4-dimethylpiperazine-1-yl)piperidine-1-yl)-4-methoxyphenyl) acrylamide]
	A (GI50 < 50 nM)						C=CC(=O)Nc1cc(Nc2cc(N3OCC[C@@H]3c3ccc(F)c(F)c3F)ncn2)c(OC)cc1N1CCC(N2C[C@@H]3C[C@H]2CO3)CC1 [compound 574, N-(2-(4-((1S,4S)-2-oxa-5-azabicyclo [2.2.1]heptane-5-yl)piperidine-1-yl)-4-methoxy-5-((6-((R)-3-(2,3,4-trifluorophenyl)isoxazolidine-2-yl)pyrimidine-4-yl)amino)phenyl)acrylamide]
